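A five-concentration, 48-hour dose response in 96-well plates underlies each endpoint, interpolated linearly between surrounding concentrations. At the GI50, growth is halved. TGI: concentration producing complete growth inhibition.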
Assays:
Experiment in all cases: DTP human tumour cell line panel, 48 h
UO-31 renal = system: UO-31 renal
SW-620 colon = system: SW-620 colon
LOX IMVI melanoma = system: LOX IMVI melanoma
DU-145 prostate = system: DU-145 prostate
CCRF-CEM leukemia = system: CCRF-CEM leukemia
M14 melanoma = system: M14 melanoma
OVCAR-8 ovarian = system: OVCAR-8 ovarian
A549 NSCLC = system: A549 NSCLC
SF-539 CNS = system: SF-539 CNS
T-47D breast = system: T-47D breast

Row | Compound | TGI (UO-31 renal) [µM] | TGI (SW-620 colon) [µM] | TGI (LOX IMVI melanoma) [µM] | TGI (DU-145 prostate) [µM] | TGI (CCRF-CEM leukemia) [µM] | TGI (M14 melanoma) [µM] | TGI (OVCAR-8 ovarian) [µM] | TGI (A549 NSCLC) [µM] | TGI (SF-539 CNS) [µM] | TGI (T-47D breast) [µM] | GI50 (UO-31 renal) [µM] | GI50 (SW-620 colon) [µM] | GI50 (DU-145 prostate) [µM] | GI50 (CCRF-CEM leukemia) [µM] | GI50 (M14 melanoma) [µM] | GI50 (SF-539 CNS) [µM] | GI50 (LOX IMVI melanoma) [µM] | GI50 (OVCAR-8 ovarian) [µM] | GI50 (A549 NSCLC) [µM] | GI50 (T-47D breast) [µM]
1 | O=C(/C=C/c1ccc(O)cc1)NCCc1ccc(O)cc1 | > 12.5 | > 12.5 | > 12.5 | > 12.5 | 11.4 | > 12.5 | > 12.5 | > 12.5 | 11.1 | > 12.5 | – | – | – | – | – | – | – | – | – | –
2 | COc1cccc(-c2nc3c(C(=O)NCCN(C)C)cccc3[nH]2)c1 | 29.1 | > 54.6 | 34.9 | – | > 81.6 | – | > 58.4 | 46.2 | 41.4 | – | – | – | – | – | – | – | – | – | – | –
3 | C[N+]1(C)CCC(C#N)(c2ccccc2)CC1 | > 100 | > 100 | – | > 100 | > 100 | > 100 | > 100 | > 100 | – | > 100 | – | – | – | – | – | – | – | – | – | –
4 | Oc1cc2cccc[n+]2c2cccc(Cl)c12 | 93 | – | – | – | 73.7 | – | – | – | – | – | 31.3 | 32.8 | 62.3 | 26.1 | 66.8 | 71.8 | – | – | – | –
5 | CC1(C)COC(/C=C/C2=NC(C)(C)CO2)=N1 | 64.3 | 26.9 | 16.7 | 44.1 | 28.8 | 31.4 | 51.6 | > 100 | 51.7 | 34 | – | – | – | – | – | – | – | – | – | –
6 | CC(C)C(N=Cc1ccccc1O)C(=O)O (centres undefined) | > 100 | > 100 | > 100 | > 100 | > 100 | > 100 | > 100 | > 100 | > 100 | > 100 | – | – | – | – | – | – | – | – | – | –
7 | O=C1/C(=C\c2ccc(-c3ccc(Cl)cc3Cl)o2)SC2N=C(COc3ccc(Cl)cc3)NN12 (centres undefined) | > 100 | > 100 | > 100 | > 100 | > 100 | > 100 | > 100 | > 100 | > 100 | > 100 | – | – | – | – | – | – | – | – | – | –
8 | CC(O)C(O)C(N)CC=O (centres undefined) | > 500 | > 185 | > 500 | – | > 500 | – | > 500 | > 500 | > 500 | – | – | – | – | – | – | – | – | – | – | –
9 | O=C(O)C1CC(c2ccccc2)=NN1c1ccccc1 (centres undefined) | > 100 | > 100 | > 100 | > 100 | > 100 | > 100 | > 100 | > 100 | > 100 | > 100 | – | – | – | – | – | – | – | – | – | –
10 | CCOC(=O)n1cncc1CC(NC(=O)Cc1c(C(=O)C=C(C)C)[nH]c2ccccc12)C(=O)OC (centres undefined) | 32.3 | > 100 | 35.6 | 35.9 | 50.9 | 33.3 | 40.2 | 45.3 | 46.2 | 7.46 | – | – | – | – | – | – | – | – | – | –
11 | CN(C)Cc1ccc(C(=O)Nc2ccc3ncnc(Nc4ccc(Oc5cccc(F)c5)c(Cl)c4)c3c2)cc1 | 2.59 | 3.31 | 3.15 | 2.91 | 4.65 | – | – | – | 3.04 | – | 1.3 | 1.76 | 1.55 | 1.65 | – | 1.6 | 1.69 | – | – | –
12 | Fc1ccc(-c2ccc(-c3nnc(-c4cc(F)c(Cl)cc4Cl)o3)o2)cc1Cl | > 100 | 98.3 | 48.9 | > 100 | > 100 | – | > 100 | > 100 | 85.7 | 45.1 | 34.7 | 31.9 | 29.5 | 35 | – | 29.4 | 20.8 | 31.9 | 37.3 | 13.7
13 | c1ccc2sc(C3(N4CCCCC4)CCCC3)cc2c1 | 33.8 | 24.1 | 32.7 | 24 | 17.7 | 33.1 | 24.7 | 22.3 | 31.7 | – | – | – | – | – | – | – | – | – | – | –
14 | COc1ccc(SC(C)(SC)c2ccccn2)c(OC)n1 (centres undefined) | > 100 | > 100 | > 100 | > 100 | – | > 100 | > 100 | > 100 | > 100 | – | – | – | – | – | – | – | – | – | – | –
15 | C[C@]12CC(c3ccccc3O1)C(C(=O)NC13CC4CC(CC(C4)C1)C3)C(=O)N2 (some centres undefined) | 44.3 | > 100 | 57.9 | > 100 | 61.1 | 35.9 | 93.2 | 71.7 | – | – | – | – | – | – | – | – | – | – | – | –
16 | CC(=O)OCC1OC(O[C@@H]2c3c(O)c4c(c(O)c3C3=C(NN(c5ccc([N+](=O)[O-])cc5[N+](=O)[O-])[Se]3=O)[C@@]2(C)O)C(=O)c2ccccc2C4=O)C(OC(C)=O)C(OC(C)=O)C1OC(C)=O (some centres undefined) | 0.548 | 0.339 | 0.319 | 1.84 | 1.08 | 1.6 | 0.562 | 2.07 | – | 1.46 | – | – | – | – | – | – | – | – | – | –
17 | O=S(=O)(O)c1c(N=Nc2c(O)ccc3ccccc23)ccc2ccccc12 | > 100 | > 100 | > 100 | > 100 | > 100 | > 100 | > 100 | > 100 | – | > 100 | – | – | – | – | – | – | – | – | – | –
18 | O=C1c2ccccc2-c2ccc(N=[N+]([O-])c3ccc4c(c3)C(=O)c3ccccc3-4)cc21 | > 100 | > 100 | > 100 | > 100 | > 100 | > 100 | > 100 | > 100 | – | > 100 | – | – | – | – | – | – | – | – | – | –
19 | COC(=O)C1=CC[C@@H]2C(C(=O)O)=CO[C@@H](OC3OC(CO)C(O)C(O)C3O)[C@H]12 (some centres undefined) | > 300 | > 300 | > 300 | – | > 119 | – | > 300 | > 300 | > 300 | – | – | – | – | – | – | – | – | – | – | –
20 | C=C1C(=O)OC2C1C(OC(=O)/C(C)=C/C)CC1(C)C(=O)CCC(=C)C21 (centres undefined) | 13.3 | 23.4 | 13.2 | 24.2 | > 80.9 | 23.3 | 29.6 | 43.7 | 32.1 | 43.3 | – | – | – | – | – | – | – | – | – | –
21 | N#C/C=C1\C=CC(O)C(O)C1OC1OC(CO)C(O)C(O)C1O (centres undefined) | > 100 | > 100 | > 100 | > 100 | > 100 | > 100 | > 100 | > 100 | > 100 | > 100 | – | – | – | – | – | – | – | – | – | –
